Structures are written as SMILES.

Ki data for 1 molecule are collected here from BindingDB's records for doi:10.1021/acs.jmedchem.2c01521 (Merck, 2023).

In the assay the target is cAMP and cAMP-inhibited cGMP 3',5'-cyclic phosphodiesterase 10A (Homo sapiens, UniProt Q9Y233). As to the kind of experiment: Inhibition of human PDE10A2 transfected in human AD293 cells cytosolic fraction using cAMP as substrate by fluorescence polarization assay.
Sequence of cAMP and cAMP-inhibited cGMP 3',5'-cyclic phosphodiesterase 10A (Q9Y233 whole entry): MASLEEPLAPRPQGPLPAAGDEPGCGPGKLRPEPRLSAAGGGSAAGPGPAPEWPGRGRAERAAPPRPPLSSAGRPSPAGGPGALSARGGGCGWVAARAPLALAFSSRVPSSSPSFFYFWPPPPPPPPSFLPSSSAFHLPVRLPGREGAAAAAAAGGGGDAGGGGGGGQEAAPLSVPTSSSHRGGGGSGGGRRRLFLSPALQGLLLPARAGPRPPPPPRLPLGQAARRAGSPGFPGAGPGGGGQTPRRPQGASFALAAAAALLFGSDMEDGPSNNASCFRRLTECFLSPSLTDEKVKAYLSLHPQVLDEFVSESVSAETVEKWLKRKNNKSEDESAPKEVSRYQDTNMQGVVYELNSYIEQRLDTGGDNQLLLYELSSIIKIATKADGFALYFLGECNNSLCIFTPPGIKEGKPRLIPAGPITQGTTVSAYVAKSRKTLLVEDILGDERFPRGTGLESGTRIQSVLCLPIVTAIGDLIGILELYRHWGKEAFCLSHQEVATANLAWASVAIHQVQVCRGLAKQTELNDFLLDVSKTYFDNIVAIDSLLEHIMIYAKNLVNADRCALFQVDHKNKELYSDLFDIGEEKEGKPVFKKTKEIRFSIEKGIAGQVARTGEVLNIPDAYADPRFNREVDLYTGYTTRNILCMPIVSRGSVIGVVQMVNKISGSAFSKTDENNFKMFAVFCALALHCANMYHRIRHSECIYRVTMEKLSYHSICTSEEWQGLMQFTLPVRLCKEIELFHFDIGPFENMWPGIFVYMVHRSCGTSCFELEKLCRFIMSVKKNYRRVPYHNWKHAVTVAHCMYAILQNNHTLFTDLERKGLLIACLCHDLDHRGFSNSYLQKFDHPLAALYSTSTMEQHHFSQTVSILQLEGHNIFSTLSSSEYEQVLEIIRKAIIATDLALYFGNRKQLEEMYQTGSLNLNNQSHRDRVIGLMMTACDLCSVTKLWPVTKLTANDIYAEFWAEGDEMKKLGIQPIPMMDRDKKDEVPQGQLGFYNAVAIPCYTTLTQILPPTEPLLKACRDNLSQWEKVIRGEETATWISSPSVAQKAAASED

As to `Cc1cnc(OC[C@H]2C[C@@H]2c2ccccn2)cc1NCc1cnn(C)c1`, the affinity, expressed as Ki, was 7.8 nM.
